From patent publication US20080145313A1, “Compositions and Methods for the Treatment and Prevention of Neoplastic Disorders” (Genesis Research & Development Corporation Limited, priority 2006, published 2008)
Where two headings read alike, the source gives them in different places.

What was measured:
[1] = test system: A549 cells; test: 5FU toxicity in A549 cells after TYMS or DHFR knockdown, SYBR Green; assay type: cell-based, human; conditions: 5FU continuous for 3 days, read-out: IC50 value of 5FU following TYMS knockdown, A549
Procedure: (§1) HCT-116 and A549 cells were transfected as described above with 0.1, 1.0 and 10 nM of three TYMS-specific siRNAs, labeled TYMS-1, TYMS-2 and TYM-3 (SEQ ID NO: 4833-4835 (DNA), and SEQ ID NO: 5139-5141 (RNA), or 1.0 and 10 nM control siRNAs (809-ctrl; SEQ ID NO: 4805 (DNA), and SEQ ID NO: 5302 (RNA) and 81ctrl; SEQ ID NO: 4804 (DNA), and SEQ ID NO: 5301 (RNA)). HCT-116 and A549 cells were also similarly transfected with 0.1, 1.0 and 10 nM of three DHFR-specific siRNAs, labeled DHFR-1, DHFR-2 and DHFR-3 (SEQ ID NO: 4836-4838 (DNA), and SEQ ID NO: 5142-5144 (RNA)), or control siRNA (SEQ ID NO: 4805 (DNA), and SEQ ID NO: 5302 (RNA)). Twenty four hours after transfection, cells were exposed to 5FU using a serial dilution starting at 44 μM, in medium containing either 10% normal FCS or 10% dialyzed FCS as described above. 5FU treatment was continuous for 3 days, at which time cell growth was analyzed by measuring DNA content per well using the SYBR Green assay outlined above. […] This combinatorial inhibitory effect was further increased when experiments were done in medium containing dialyzed FCS (FIGS. 27D-F; FIGS. 28D-F).
(§2) FIGS. 29 and 30 show transfection with DHFR siRNA similarly led to a dose-dependent increase in growth inhibition above that caused by the drug alone (control siRNA-transfected cells) in HCT-116 cells (FIGS. 29A-C), and A549 cells (FIGS. 30A-C). This combinatorial inhibitory effect was further increased when experiments were done in medium containing dialyzed FCS (FIGS. 29D-F; FIGS. 30D-F). The changes in the IC50 value for 5FU in HCT-116 and A549 cells following TYMS knockdown by individual siRNAs are listed in Table 16 below.

[2] = test system: HCT-116 cells; test: 5FU toxicity in HCT-116 cells after TYMS or DHFR knockdown, SYBR Green; assay type: cell-based; conditions: 5FU continuous for 3 days, read-out: IC50 value of 5FU following TYMS knockdown, HCT-116
Procedure: as §1, §2

[3] = test system: A549 cells; test: Growth inhibition of siRNA-transfected A549 cells, SYBR Green I DNA content; assay type: cell-based, human; conditions: 10 nM siRNA; for Growth Inhibition in A549 cells: DNA content 96 hours after transfection
Summary of the method: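 Growth read-out: cellular DNA quantified with SYBR Green I (485/535 nm) 96 h after transfection, cells frozen, thawed and lysed in PBS/1% Triton X-100, pH 7. Cells (A549, 5×10^3 cells/cm^2) received 10 nM siRNA by RNAiMAX; non-specific siRNA served as control; triplicate wells averaged.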

[4] = test system: YBX1 mRNA; test: YBX1 mRNA level by quantitative RT-PCR in A549 cells; assay type: cell-based, human; conditions: 10 nM siRNA; 24 h post-transfection
Procedure: A549 cells were transfected with 10 nM RRM1-1 (SEQ ID NO: 4830 (DNA), and SEQ ID NO: 5136 (RNA); light grey bar in FIG. 12A), RRM1-2 (SEQ ID NO: 4831 (DNA), and SEQ ID NO: 5137 (RNA); dark grey bar in FIG. 12A), RRM1-3 (SEQ ID NO: 4832 (DNA), and SEQ ID NO: 5138 (RNA); black bar in FIG. 12A) or control siRNA (SEQ ID NO: 4804 (DNA), and SEQ ID NO: 5301 (RNA)) (open bar in FIG. 12A) and relative mRNA levels quantified 24 h post-transfection. RNA was purified from cells using Trizol® extraction as per the manufacturer's protocol (Invitrogen). cDNA was prepared by digesting approximately 200 ng purified RNA with DNAse I (Invitrogen) for 15 minutes at room temperature, followed by 15 minutes at 65° C. in the presence of 25 mM EDTA. 30 ng random primers were added and incubated for 10 minutes at room temperature, 1 minute on ice; Superscript III polymerase (Invitrogen) was added in presence of 5 nM DTT (Sigma, St Louis, Mo.) and 1 mM deoxyribonucleotides (Invitrogen), and the reaction incubated at 25° C. for 5 minutes, followed by an hour at 55° C. cDNA was diluted 1:3 in 10 mM Tris pH 7.0, and quantitative RT-PCR carried out on an ABI Prism 7900HT (Applied Biosciences, Inc., Foster City, Calif.) using FastStart TaqMan SYBRGreen (Roche, Basel, Switzerland) and specific primers at 360 nM for RRM1 and RRM2 and the housekeeping genes HPRT and Lamin. Primer sequence pairs used for RRM1, RRM2, HPRT and lamin are given in SEQ ID NO: 4881 and 4882; 4883 and 4884; 4885 and 4886; 4887 and 4888 respectively.
A549 cells were transfected with 0.1, 1.0 and 10 nM siRNA (given in SEQ ID NO: 4981 to 4985 (DNA), and SEQ ID NO: 5276-5280 (RNA)) and the relative mRNA levels quantified 24 h post-transfection as described in Example 8.

[5] = test system: SK-Mel-5 cells; test: Growth inhibition of siRNA-transfected SK-Mel-5 cells, SYBR Green I DNA content; assay type: cell-based, human; conditions: 10 nM siRNA; standardized against control siRNA
Procedure: A549 cells (human lung cancer cell line; ATCC No. CCL-185), SK-MeI-5 cells (human melanoma cell line; ATCC No. HTB-70), MCF-7 cells (human adenocarcinoma cell line; ATCC No. HTB-22), HCT-116 cells (colorectal carcinoma; ATCC CCL-247) and HCT-116 p53 null cells (derived from ATCC No. CCL-247; Bunz et al., Science 282:1497-1501, 1998) were cultured in RPMI 1640 medium with 10% v/v heat-inactivated fetal calf serum (FCS). Cells were seeded at a density of 5×10^4 cells/cm^2 in multi-well tissue culture plates. Sequences of Stealth™ siRNA duplexes (Invitrogen) targeting human ribonucleotide reductase subunit 1 (SEQ ID NO: 22) and subunit 2 (SEQ ID NO; 38) are given in SEQ ID NO: 4830-4832 (DNA), and SEQ ID NO: 5136-5138 (RNA) for RRM1, and SEQ ID NO: 5306-5308 (DNA), and SEQ ID NO: 5303-5305 (RNA) for RRM2. siRNAs were transfected at different concentrations into cells using Lipofectamine™ RNAiMAX transfection reagent (Invitrogen). Non-specific siRNA (SEQ ID NO: 4804 and 4805 (DNA), and SEQ ID NO: 5301 and 5302 (RNA)) were used as controls. The cellular DNA content was measured using a SYBR Green I-based fluorometric assay at 24, 48, 72 and 96 hours after transfection (120 hours for the MCF-7 cells), as follows. At the indicated time points following reverse transfection, cells were harvested and frozen at −80° C. overnight. Cells were thawed and cell lysis buffer (phosphate-buffered saline (PBS) containing 1% Triton X-100, pH 7) and SYBR Green I (1:10^5 V/V; Invitrogen) was added to the wells and incubated overnight in the dark at 4° C.
The following day, cell lysates were mixed thoroughly, and DNA fluorescence was measured with a Wallac Victor^2 plate reader (Turku, Finland) set at an excitation frequency of 485 nm and measuring emission at 535 nm.
siRNA-mediated inhibition of cancer cell growth using siRNA targeting the YBX1 gene (SEQ ID NO: 92) was determined as follows. SK-MeI-5 cells were cultured in RPMI 1640 medium with 10% v/v heat-inactivated fetal calf serum. Cells were cultured as described above and reverse transfected with 0.1, 1.0, 10 and 40 nM (final concentration) of a pool of YBX1-targeting siRNAs (SEQ ID NO: 4982 and 4983 (DNA), and SEQ ID NO: 5277 and 5278 (RNA); referred to as 994 and 995 in FIG. 19) or a non-specific control (SEQ ID NO: 4804 (DNA), and SEQ ID NO: 5301 (RNA); referred to as Stealth 81 ctrl in FIG. 19), and cell growth determined after 120 h by measuring DNA fluorescence with a Wallac Victor^2 plate reader (Turku, Finland) set at an excitation frequency of 485 nm and measuring emission at 535 nm. Growth inhibition by the siRNA pool was standardized against the inhibition obtained with the control siRNAs.
siRNA-mediated RNAi was also determined on a panel of different cell lines. A549, SK-MeI-5, wt HCT-116, HCT-116−/−p53 and MCF-7 cells were transfected with 10 nM siRNAs targeting YBX-1 and growth inhibition determined as described above. The YBX1 siRNAs are given in SEQ ID NO: 4981 to 4985 (DNA) and SEQ ID NO: 5276-5280 (RNA). A non-specific siRNA (SEQ ID NO: 4804 (DNA) and SEQ ID NO: 5301 (RNA)) was used as control. Growth inhibition by the siRNAs, given in Table 14, was standardized against the inhibition obtained with the control siRNA.

[6] = cells transfected with 0.1 nM siRNA
[7] = cells transfected with 1 nM siRNA
[8] = cells transfected with 10 nM siRNA

Row | Substance | IC50 [1, 6] | IC50 [1, 7] | IC50 [1, 8] | IC50 [2, 6] | IC50 [2, 7] | IC50 [2, 8] | Growth Inhibition in A549 cells [3] | growth inhibition, A549 cells ([3]; standardized against control siRNA) | YBX1-specific reduction of mRNA levels in A549 cells [4] | growth inhibition, SK-Mel-5 cells [5]
1 | SEQ ID NO: 4805: non-specific control siRNA (chain 1 GGGAAATGTCTCCTCCCATTGATTT; chain 2 GGGAAAUGUCUCCUCCCAUUGAUUU; chemistry not given here; one strand in two spellings) [reference compound] | 820 nM | 670 nM | 640 nM | 650 nM | 600 nM | 600 nM | – | – | – | –
2 | SEQ ID NO: 4834: siRNA targeting TYMS (chain 1 TGTGGATCCCTTGATAAACCACAGC; chain 2 UGUGGAUCCCUUGAUAAACCACAGC; chemistry not given here; one strand in two spellings) | 590 nM | 210 nM | 150 nM | 410 nM | – | 100 nM | ++ (inhibits by at least 75%) | – | – | –
3 | SEQ ID NO: 4835: siRNA targeting TYMS (chain 1 ATTCAGGTAAATATGTGCATCTCCC; chain 2 AUUCAGGUAAAUAUGUGCAUCUCCC; chemistry not given here; one strand in two spellings) | 610 nM | 130 nM | 200 nM | 320 nM | 190 nM | 110 nM | ++ (inhibits by at least 75%) | – | – | –
4 | SEQ ID NO: 4981: siRNA targeting YBX1 (chain 1 TGGATAGCGTCTATAATGGTTACGG; chain 2 UGGAUAGCGUCUAUAAUGGUUACGG; chemistry not given here; one strand in two spellings) | – | – | – | – | – | – | – | + (At least 20% inhibition) | ++ (At least 50% inhibition) | ++ (At least 50% inhibition)
